Test results as given in PubChem BioAssay AID623906 (Vanderbilt Specialized Chemistry Center, 2012).

Molecular target: Metabotropic glutamate receptor 4 (Rattus norvegicus) (UniProt P31423)
Test: PubChem AID 623906
Settings: rat mGlu4 cells, thallium flux, glutamate CRC fold shift, at 10 µM, stronger effect = higher value

Metabotropic glutamate receptor 4 (Rattus norvegicus), sequence (P31423 whole entry, looked up): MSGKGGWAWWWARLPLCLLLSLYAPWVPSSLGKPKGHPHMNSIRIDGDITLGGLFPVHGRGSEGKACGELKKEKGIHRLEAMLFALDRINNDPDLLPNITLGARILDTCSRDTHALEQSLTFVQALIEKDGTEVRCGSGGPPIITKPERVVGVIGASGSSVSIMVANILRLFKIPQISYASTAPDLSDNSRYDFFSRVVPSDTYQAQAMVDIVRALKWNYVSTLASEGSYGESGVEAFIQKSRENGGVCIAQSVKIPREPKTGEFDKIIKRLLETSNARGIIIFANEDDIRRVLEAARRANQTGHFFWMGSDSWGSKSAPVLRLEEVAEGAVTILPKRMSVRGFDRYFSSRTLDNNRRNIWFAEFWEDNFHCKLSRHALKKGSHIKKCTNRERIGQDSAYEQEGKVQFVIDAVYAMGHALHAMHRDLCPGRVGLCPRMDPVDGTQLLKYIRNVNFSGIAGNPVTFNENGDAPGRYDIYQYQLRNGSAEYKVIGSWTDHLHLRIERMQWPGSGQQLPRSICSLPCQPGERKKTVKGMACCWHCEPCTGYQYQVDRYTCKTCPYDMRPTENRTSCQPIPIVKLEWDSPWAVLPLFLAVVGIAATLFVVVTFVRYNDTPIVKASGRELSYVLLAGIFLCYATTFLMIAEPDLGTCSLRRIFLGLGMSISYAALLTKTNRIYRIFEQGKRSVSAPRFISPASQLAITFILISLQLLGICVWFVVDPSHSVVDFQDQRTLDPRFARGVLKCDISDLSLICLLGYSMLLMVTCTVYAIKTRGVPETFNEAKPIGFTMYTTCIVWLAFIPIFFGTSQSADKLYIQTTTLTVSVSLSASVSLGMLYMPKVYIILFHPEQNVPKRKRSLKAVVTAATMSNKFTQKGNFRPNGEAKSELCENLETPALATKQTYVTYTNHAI

O=C(Nc1cccc(Cl)c1)c1ccccn1
fold shift: 16.5
glutamate max response (glutamate max with compound): 96.9%
